US5786348A, “Methods for preparation and use of 1α,24(S)-dihydroxy vitamin D2” (priority 1995, dated 1998)
Read-outs that look alike come from different tables or passages of the source. One block for each molecule: values may come before it.

Columns and labels:
vitamin D receptor (VDR) = target: T1, vitamin D receptor (VDR) (Homo sapiens, UniProt P11473); assay: Vitamin D-dependent transcriptional activation: growth hormone production in COS-1 cells co-transfected with VDR plasmid and VDRE-GH reporter; format: cell-based; conditions: for Total GH Production: averages of duplicate determinations
T1 sequence (P11473 1-427): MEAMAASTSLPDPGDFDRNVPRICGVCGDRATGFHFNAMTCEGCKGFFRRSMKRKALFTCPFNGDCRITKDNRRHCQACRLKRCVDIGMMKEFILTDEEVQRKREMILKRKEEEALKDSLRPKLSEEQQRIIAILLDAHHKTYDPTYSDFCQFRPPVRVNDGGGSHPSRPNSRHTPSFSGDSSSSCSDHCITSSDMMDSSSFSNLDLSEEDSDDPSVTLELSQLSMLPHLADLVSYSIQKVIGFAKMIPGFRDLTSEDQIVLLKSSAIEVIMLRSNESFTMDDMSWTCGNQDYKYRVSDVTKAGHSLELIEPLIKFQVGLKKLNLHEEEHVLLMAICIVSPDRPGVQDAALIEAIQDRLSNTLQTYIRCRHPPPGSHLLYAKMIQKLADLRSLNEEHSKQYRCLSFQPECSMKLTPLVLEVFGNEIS
Procedure: The biological activity in vitro of chemically synthesized 1α,24(S)-(OH)2 D2 and 1α,24(R)-(OH)2 D2 was measured using a vitamin D-dependent transcriptional activation model system in which a vitamin D receptor (VDR)-expressing plasmid pSG5-hVDR1/3and a plasmid p(CT4)^4 TKGH containing a Growth Hormone (GH)-gene, under the control of a vitamin D-responsive element (VDRE) were co-transfected into Green monkey kidney, COS-1 cells. DNA's for these two vectors were supplied by Dr. Mark Haussler, Department of Biochemistry, University of Arizona, Tucson, Ariz.
Transfected cells were incubated with vitamin D metabolites and growth hormone production was measured.

[1] = system: 1,25-(OH)2 D3 receptor site; conditions: Ishizuka et al., Steroids 1981, 1982; cited from earlier work
[2] = format: in vivo, rat
Procedure: Vitamin D2 or 24-OH-D2 was administered (either oral or intraperitoneal supplementation) to vitamin D-deficient rats. Lipid extracts of the plasma were prepared and the metabolites purified by the method of Horst et al. (Horst, R. L., Koszewski, N. J. and Reinhardt, T. A., Biochem., 29:578-82 (1990)) described below for synthesyzing standard biological 1α,24-(OH)2 D2.
Standard biological 1α,24-(OH)2 D2 was synthesized in vitro from 24-OH-D2 by incubating 10 μg of 24-OH-D2 in flask containing 5 ml of 20% kidney homogenates made from vitamin D-deficient chicks. The product of this reaction was isolated by HPLC and identified by mass spectrometry.

Hep 3B cells = assay: Metabolism of 1α-OH-D2 in Hep 3B human hepatoma cells at rising substrate concentration; format: in vitro ADME; conditions: Experiment 2, photodiode array spectrophotometry
Procedure: Substantially pure 1α-(OH)D2 was obtained from Bone Care International, Inc. of Madison, Wis. The 1α-(OH)D2 was cultured for 48 hours with cells derived from a human hepatoma, Hep 3B, in medium devoid of fetal calf serum using known methods in the art.
Lipid extracts of the combined medium and cells were generated by known methods in the art and were subjected to high pressure liquid chromatography (HPLC) on Zorbax-S1L developed with hexane/isopropanol/methanol (91:7:2). The putative 1α,24(?)-(OH)2 D2 metabolite eluted between the parent 1α-(OH)D2 and standard 1α,25-(OH)2 D2 (also obtained from Bone Care International, Inc. of Madison, Wis.). (As used herein, the term "1α,24(?)-(OH)2 D2 " is meant to indicate that the epimeric form has not been identified.) The 1α,24(?)-(OH)2 D2 was further purified by this HPLC system before the metabolite's identification was undertaken using mass spectrometry analysis.
Hep 3B cells were incubated with 1α-OH-D2, as described above, at final concentrations of 1, 10, or 100 nM (Experiment 1), and 1 or 10 μM (Experiment 2) and 1α,24(S)-(OH)2 D2 was extracted and purified. The 1α,24(S)-(OH)2 D2 and 1α,25-(OH)2 D2 metabolites were quantitated by recovered radiolabel (Experiment 1) or by photodiode array spectrophotometry (Experiment 2).

[3] = Blood metabolite levels in osteoporotic women given 1α-OH-D2; format: in vivo, human; conditions: one day after a single 2 μg dose
Procedure: An increase in the production of 1α,24(S)-(OH)2 D2 relative to 1α,25-(OH)2 D2 has also been observed by the present inventors in human females who received 1α-OH-D2 as part of an investigation of that drug for the treatment of osteoporosis. Following either a single dose of 2 μg of 1α-OH-D2 or daily doses of 8 μg/day for one week, blood was collected and analyzed for the metabolites 1α,24(S)-(OH)2 D2 and 1α,25-(OH)2 D2. Lipid was extracted from the blood, and the metabolites were purified by HPLC using standard methods and quantified with the radioreceptor assay produced by Incstar (Stillwater, Minn.). One day after a single 2 μg dose, the level of 1α,24(S)-(OH)2 D2 was undetectable with the 1α,25-(OH)2 D2 level being approximately 11 pg/ml. In contrast, one day following the last dose of 8 μg, the level of 1α,24(S)-(OH)2 D2 averaged 9 pg/ml with the 1α,25-(OH)2 D2 level averaging 30 pg/ml.

bovine thymus VDR = target: T2, bovine thymus VDR (Bos taurus, UniProt Q28037); assay: Radioreceptor assay with bovine thymus VDR (Incstar), displacement of 3H-1α,25-(OH)2 D3; format: binding; conditions: bovine thymus VDR radioreceptor assay; read-out: Half-maximal binding (converted)
T2 construct: commercially available kit of bovine thymus VDR; purchased Incstar (Stillwater, Minn.); host or cells: bovine thymus
T2 sequence (Q28037 1-426): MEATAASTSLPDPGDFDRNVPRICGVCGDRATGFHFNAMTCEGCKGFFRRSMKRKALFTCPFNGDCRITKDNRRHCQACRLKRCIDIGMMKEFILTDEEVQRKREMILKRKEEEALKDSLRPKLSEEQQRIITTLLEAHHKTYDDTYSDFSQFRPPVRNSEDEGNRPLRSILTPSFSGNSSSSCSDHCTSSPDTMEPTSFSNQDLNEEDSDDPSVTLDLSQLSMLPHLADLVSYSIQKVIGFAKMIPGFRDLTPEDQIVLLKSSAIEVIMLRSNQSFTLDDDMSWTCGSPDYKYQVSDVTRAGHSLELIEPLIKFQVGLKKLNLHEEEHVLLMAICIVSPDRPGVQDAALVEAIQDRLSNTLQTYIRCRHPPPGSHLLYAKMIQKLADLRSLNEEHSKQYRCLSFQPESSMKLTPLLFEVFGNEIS
Excerpt: Purified 1α,24(S)-(OH)2 D2 was quantitated by photodiode array spectrophotometry and assayed in the radioreceptor assay.
The purified 1α,24(R)-(OH)2 D2 and 1α,24(S)-(OH)2 D2 epimers were quantitated by ultraviolet spectroscopy. The concentration of 1α,24(R)-(OH)2 D2 required to produce the same displacement of ^3 H-1α,25-(OH)2 D3 tracer from the receptor was 20 to 30 times that required for 1α,24(S)-(OH)2 D2, as shown in FIG. 4.

[4] = human, in vivo; cited from earlier work
[5] = inducer molar concentration 10^-5
[6] = inducer molar concentration 10^-6
[7] = inducer molar concentration 10^-7
[8] = inducer molar concentration 10^-8
[9] = inducer molar concentration 10^-9

Net vitamin D-inducible GH-production (vitamin D receptor (VDR); [5]): 731 ng/mL | Total GH Production (vitamin D receptor (VDR); [5]): 775 ng/mL | Net vitamin D-inducible GH-production (vitamin D receptor (VDR); [6]): 1056 ng/mL | Total GH Production (vitamin D receptor (VDR); [6]): 1100 ng/mL | Net vitamin D-inducible GH-production (vitamin D receptor (VDR); [7]): 201 ng/mL | Total GH Production (vitamin D receptor (VDR); [7]): 245 ng/mL
SMILES: C=C1CC[C@H](O)C/C1=C/C=C1\CCC[C@]2(C)[C@@H]([C@H](C)CCCC(C)(C)O)CC[C@@H]12 [25-OH-D3, 25-hydroxy vitamin D3, reference compound]

SMILES: C=C1/C(=C\C=C2/CCC[C@]3(C)[C@@H]([C@H](C)CC[C@@H](O)C(C)C)CC[C@@H]23)C[C@@H](O)C[C@@H]1O [1α,24(R)-(OH)2 D3, 1α,24(R)-dihydroxyvitamin D3]
Binding of the 1,25-(OH)2 D3 receptor site relative to 1,25-(OH)2 D3 [1]: more tightly

SMILES: C=C1CC[C@H](O)C/C1=C/C=C1\CCC[C@]2(C)[C@@H]([C@H](C)CCCC(C)C)CC[C@@H]12 [vitamin D3]
24-OH-D3 in plasma ([2]; comparable vitamin D-deficient rats): no detectable

Net vitamin D-inducible GH-production (vitamin D receptor (VDR); [7]): 1256 ng/mL | Total GH Production (vitamin D receptor (VDR); [7]): 1300 ng/mL | Net vitamin D-inducible GH-production (vitamin D receptor (VDR); [8]): 1056 ng/mL | Total GH Production (vitamin D receptor (VDR); [8]): 1100 ng/mL | Net vitamin D-inducible GH-production (vitamin D receptor (VDR); [9]): 36 ng/mL | Total GH Production (vitamin D receptor (VDR); [9]): 80 ng/mL
SMILES: C=C1/C(=C\C=C2/CCC[C@]3(C)[C@@H]([C@H](C)/C=C/[C@](C)(O)C(C)C)CC[C@@H]23)C[C@@H](O)C[C@@H]1O [1α,24(R)-(OH)2 D2, 1α,24(R)-dihydroxy vitamin D2]

Rate of Production of 1α,24(S)-(OH)2 D2 (Hep 3B cells; substrate concentration 1 μM): 4.9 pmol per 10^6 cells/day | Rate of Production of 1α,24(S)-(OH)2 D2 (Hep 3B cells; substrate concentration 10 μM): 59 pmol per 10^6 cells/day | Rate of Production of 1α,25-(OH)2 D2 (Hep 3B cells; substrate concentration 10 μM): 7.4 pmol per 10^6 cells/day | Blood level of metabolite 1α,24(S)-(OH)2 D2 [3]: undetectable
SMILES: C=C1/C(=C\C=C2/CCC[C@]3(C)[C@@H]([C@H](C)/C=C/[C@H](C)C(C)C)CC[C@@H]23)C[C@@H](O)C[C@@H]1O [1α-OH-D2, 1α-hydroxy vitamin D2]

IC50 (bovine thymus VDR): 0.187 nM
SMILES: C=C1/C(=C\C=C2/CCC[C@]3(C)[C@@H]([C@H](C)/C=C/[C@H](C)C(C)(C)O)CC[C@@H]23)C[C@@H](O)C[C@@H]1O [1α,25-(OH)2D2, 1α,25-dihydroxy vitamin D2, reference compound]

SMILES: C=C1/C(=C\C=C2/CCC[C@]3(C)[C@@H]([C@H](C)CCCC(C)C)CC[C@@H]23)C[C@@H](O)C[C@@H]1O [1α-(OH)D3, 1α-hydroxy vitamin D3]
Safety of dosage levels of 2.0 μg/day or greater [4]: not safely obtained

SMILES: C=C1CC[C@H](O)C/C1=C/C=C1\CCC[C@]2(C)[C@@H]([C@H](C)/C=C/C(C)(O)C(C)C)CC[C@@H]12 (stereo partly shown) [24-OH-D2, 24-hydroxyvitamin D2]
Metabolite isolated from plasma lipid extracts ([2]; rat, in vivo): co-migrated on HPLC with the standard 1α,24-(OH)2 D2

SMILES: C=C1CC[C@H](O)C/C1=C/C=C1\CCC[C@]2(C)[C@@H]([C@H](C)/C=C/[C@H](C)C(C)C)CC[C@@H]12 [vitamin D2, Vitamin D2]
Metabolite isolated from plasma lipid extracts ([2]; vitamin D-deficient rats, HPLC against standard biological 1α,24-(OH)2 D2): co-migrated on HPLC with the standard 1α,24-(OH)2 D2
